# Molecular target: T1, HCV polymerase (Hepatitis C virus genotype 1b, UniProt Q9WMX2)
# T1 construct: (His)6 (C); made in house; host or cells: XL-1 cells (E. coli, by own knowledge)
# Experiment: Polymerase assay of Biological Example 1 (IC50 values of Table 3)
# Assay type: biochemical
# Details: IC50 values of Table 3, polymerase assay of Biological Example 1; read-out: NS5B-enzyme3
# Text: A number of assays have been published to assess these activities. A general method that assesses the gross increase of HCV virus in culture was disclosed in U.S. Pat. No. 5,738,985 to Miles et al. In vitro assays have been reported in Ferrari et al. Jnl. of Vir., 73:1649-1654, 1999; Ishii et al., Hepatology, 29:1227-1235, 1999; Lohmann et al., Jnl of Bio. Chem., 274:10807-10815, 1999; and Yamashita et al., Jnl. of Bio. Chem., 273:15479-15486, 1998.
# WO 97/12033, filed on Sep. 27, 1996, by Emory University, listing C. Hagedorn and A. Reinoldus as inventors, which claims priority to U.S. Provisional Patent Application Ser. No. 60/004,383, filed on September 1995, described an HCV polymerase assay that can be used to evaluate the activity of the of the compounds described herein. Another HCV polymerase assay has been reported by Bartholomeusz, et al., Hepatitis C Virus (HCV) RNA polymerase assay using cloned HCV non-structural proteins; Antiviral Therapy 1996:1 (Supp 4) 18-24.
row,IC50,Molecule
1,3650 nM,"CC(C)(C)OC(=O)N1CC(=O)N(c2cc(-c3ccccc3)sc2C(=O)O)[C@H](C2CCCCC2)C1 [Compound 14, (R)-4-(2-Carboxy-5-phenyl-thiophen-3-yl)-3-cyclohexyl-5-oxo-piperazine-1-carboxylic acid tert-butyl ester]"
2,199 nM,"O=C(O)c1sc(-c2ccccc2)cc1N1C(=O)CN(Cc2cccc(-n3cccc3)c2)C[C@H]1C1CCCCC1 [Compound 261, 3-[(R)-2-Cyclohexyl-6-oxo-4-(3-pyrrol-1-yl-benzyl)-piperazin-1-yl]-5-phenyl-thiophene-2-carboxylic acid]"
3,108 nM,"Cc1cccc(CN2CC(=O)N(c3cc(-c4ccccc4)sc3C(=O)O)[C@H](C3CCCCC3)C2)c1 [Compound 263, 3-[(R)-2-Cyclohexyl-4-(3-methyl-benzyl)-6-oxo-piperazin-1-yl]-5-phenyl-thiophene-2-carboxylic acid]"
4,538 nM,"Cc1cccc(C)c1CN1CC(=O)N(c2cc(-c3ccccc3)sc2C(=O)O)[C@H](C2CCCCC2)C1 [Compound 264, 3-[(R)-2-Cyclohexyl-4-(2,6-dimethyl-benzyl)-6-oxo-piperazin-1-yl]-5-phenyl-thiophene-2-carboxylic acid]"
5,601 nM,"O=C(O)c1sc(-c2ccccc2)cc1N1C(=O)CN(CC2CCCCC2)C[C@H]1C1CCCCC1 [Compound 265, 3-((R)-2-Cyclohexyl-4-cyclohexylmethyl-6-oxo-piperazin-1-yl)-5-phenyl-thiophene-2-carboxylic acid]"
6,142 nM,"O=C(O)c1sc(-c2ccccc2)cc1N1C(=O)CN(Cc2cccc(F)c2N2CCOCC2)C[C@H]1C1CCCCC1 [Compound 266, 3-[(R)-2-Cyclohexyl-4-(3-fluoro-2-morpholin-4-yl-benzyl)-6-oxo-piperazin-1-yl]-5-phenyl-thiophene-2-carboxylic acid]"
7,620 nM,"O=C(O)c1sc(-c2ccccc2)cc1N1C(=O)CN(CCc2ccccc2)C[C@H]1C1CCCCC1 [Compound 268, 3-((R)-2-Cyclohexyl-6-oxo-4-phenethyl-piperazin-1-yl)-5-phenyl-thiophene-2-carboxylic acid]"
8,330 nM,"Cc1ccccc1CN1CC(=O)N(c2cc(-c3ccccc3)sc2C(=O)O)[C@H](C2CCCCC2)C1 [Compound 269, 3-[(R)-2-Cyclohexyl-4-(2-methyl-benzyl)-6-oxo-piperazin-1-yl]-5-phenyl-thiophene-2-carboxylic acid]"
9,19 nM,"CN(C)c1ccc(CN2CC(=O)N(c3cc(-c4ccccc4)sc3C(=O)O)[C@H](C3CCCCC3)C2)cc1 [Compound 270, 3-[(R)-2-Cyclohexyl-4-(4-dimethylamino-benzyl)-6-oxo-piperazin-1-yl]-5-phenyl-thiophene-2-carboxylic acid]"
10,5.3 nM,"CC(C)(C)C#Cc1cc(N2C(=O)C(CCCS(C)(=O)=O)OC[C@H]2C2CCCCC2)c(C(=O)O)s1 (stereo partly drawn) [Compound 306, 3-[(R)-5-Cyclohexyl-2-(3-methanesulfonyl-propyl)-3-oxo-morpholin-4-yl]-5-(3,3-dimethyl-but-1-ynyl)-thiophene-2-carboxylic acid]"

row,Molecule,IC50
1,"3-[(2S,5R)-5-Cyclohexyl-2-(2,3-dihydroxy-propyl)-2-methyl-3-oxo-morpholin-4-yl]-5-(3,3-dimethyl-but-1-ynyl)-thiophene-2-carboxylic acid [Compound 326]",882 nM
2,"CC(C)(C)C#Cc1cc(N2C(=O)[C@H](CCCO)OC[C@H]2C2CCCCC2)c(C(=O)O)s1 (single isomer, unassigned) [Compound 2]",35 nM
3,"CC(C)(C)C#Cc1cc(N2C(=O)[C@@H](CCCO)OC[C@H]2C2CCCCC2)c(C(=O)O)s1 (single isomer, unassigned) [Compound 3]",4 nM
4,"CCc1ccc(S(=O)(=O)N2CC(=O)N(c3cc(-c4ccccc4)sc3C(=O)O)C(C3CCCCC3)C2)cc1 (single isomer, unassigned) [Compound 55, 3-[2-Cyclohexyl-4-(4-ethyl-benzenesulfonyl)-6-oxo-piperazin-1-yl]-5-phenyl-thiophene-2-carboxylic acid]",71 nM
5,"CC(C)(C)C#Cc1cc(N2C(=O)C(CCO)CC[C@H]2C2CCCCC2)c(C(=O)O)s1 (single isomer, unassigned) [Compound 343]",1 nM

# System: HCV replicon I389luc-ubi-neo/NS3-3′/ET in ET (Huh-lucubineo-ET) cells
# Experiment: Replicon assay (Biological Example 2), luciferase readout
# Assay type: cell-based
# Details: Hepatitis C virus; ET cells, luciferase activity 48 hours after compound
# Procedure: A cell line, ET (Huh-lucubineo-ET) was used for screening of compounds for inhibiting HCV RNA dependent RNA polymerase. The ET cell line was stably transfected with RNA transcripts harboring a I389luc-ubi-neo/NS3-3′/ET; replicon with firefly luciferase-ubiquitin-neomycin phosphotransferase fusion protein and EMCV-IRES driven NS3-5B polyprotein containing the cell culture adaptive mutations (E1202G; T12801; K1846T) (Krieger at al, 2001 and unpublished). The ET cells were grown in DMEM (Dulbeco's Modified Eagle's Medium), supplemented with 10% fetal calf serum, 2 mM Glutamine, Penicillin (100 IU/mL)/Streptomycin (100 μg/mL), 1× nonessential amino acids, and 250 μg/mL G418 (“Geneticin”). Reagents were all available through Life Technologies (Bethesda, Md.). The cells were plated at 0.5-1.0×10^4 cells/well in the 96 well plates and incubated for 24 hrs before adding test compound. The compounds were added to the cells to achieve a final concentration of 0.1 nM to 50 μM and a final DMSO (dimethylsulfoxide) concentration of 0.5%. Luciferase activity was measured 48 hours later by adding a lysis buffer and the substrate (Catalog number Glo-lysis buffer E2661 and Bright-Glo luciferase system E2620 Promega, Madison, Wis.). Cells should not be too confluent during the assay. Percent inhibition of replication data was plotted relative to no compound control. To determine the EC50 (effective concentration at which 50% of the maximum inhibition was observed), a 10 point, 3-fold serial dilution for each compound was used, which spans a concentration range of […]. EC50 values were calculated by fitting % inhibition at each concentration to the following equation: % inhibition=100%/[(EC50/[I])^b+1] where b was Hill's coefficient.
# In other aspects the EC50 was equal to or less than 10 μM. In still other aspects the EC50 was equal to or less than 1 μM.
row,Molecule,IC50
1,"CC(C)(C)C#Cc1cc(N2C(=O)[C@H](CCCO)OC[C@H]2C2CCCCC2)c(C(=O)O)s1 (single isomer, unassigned) [Compound 2]",≤ 100 nM
2,"CC(C)(C)C#Cc1cc(N2C(=O)[C@@H](CCCO)OC[C@H]2C2CCCCC2)c(C(=O)O)s1 (single isomer, unassigned) [Compound 3]",≤ 100 nM
3,"CC(C)(C)C#Cc1cc(N2C(=O)C(CCO)CC[C@H]2C2CCCCC2)c(C(=O)O)s1 (single isomer, unassigned) [Compound 343]",≤ 100 nM
4,"CC1CCN(c2ccc(S(=O)(=O)N3CC(=O)N(c4cc(-c5ccccc5)sc4C(=O)O)C(C4CCCCC4)C3)cn2)CC1 (stereo not shown) [Compound 96, 3-[2-Cyclohexyl-4-(4-methyl-3,4,5,6-tetrahydro-2H-[1,2′]bipyridinyl-5′-sulfonyl)-6-oxo-piperazin-1-yl]-5-phenyl-thiophene-2-carboxylic acid]",≤ 100 nM
5,"C[C@@H]1CCCN1c1ccc(S(=O)(=O)N2CC(=O)N(c3cc(-c4ccc(Cl)cc4)sc3C(=O)O)[C@H](C3CCCCC3)C2)cn1 [Compound 201, 5-(4-Chloro-phenyl)-3-{(R)-2-cyc!ohexyl-4-[6-((R)-2-methyl-pyrrolidin-1-yl)-pyridine-3-sulfonyl]-6-oxo-piperazin-1-yl}-thiophene-2-carboxylic acid]",≤ 100 nM
6,"CC1(C)CCN(c2ccc(S(=O)(=O)N3CC(=O)N(c4cc(-c5ccccc5)sc4C(=O)O)[C@H](C4CCCCC4)C3)cn2)C1 [Compound 219, 3-{(R)-2-Cyclohexyl-4-[6-(3,3-dimethyl-pyrrolidin-1-yl)-pyridine-3-sulfonyl]-6-oxo-piperazin-1-yl}-5-phenyl-thiophene-2-carboxylic acid]",≤ 100 nM
7,"CN1CCN(c2ccc(-c3ccc(S(=O)(=O)N4CC(=O)N(c5cc(-c6ccccc6)sc5C(=O)O)[C@H](C5CCCCC5)C4)cn3)cn2)CC1 [Compound 224, 3-{(R)-2-Cyclohexyl-4-[6′-(4-methyl-piperazin-1-yl)-[2,3′]bipyridinyl-5-sulfonyl]-6-oxo-piperazin-1-yl}-5-phenyl-thiophene-2-carboxylic acid]",≤ 100 nM
8,"O=C(O)c1sc(-c2ccc(F)cc2)cc1N1C(=O)CN(S(=O)(=O)c2ccc(N3CC4CC3CO4)nc2)C[C@H]1C1CCCCC1 (stereo partly drawn) [Compound 228, 3-{(R)-2-Cyclohexyl-4-[6-(2-oxa-5-aza-bicyclo[2.2.1]hept-5-yl)-pyridine-3-sulfonyl]-6-oxo-piperazin-1-yl}-5-(4-fluoro-phenyl)-thiophene-2-carboxylic acid]",≤ 100 nM
9,"O=C(O)c1sc(-c2ccc(F)cc2)cc1N1C(=O)CN(S(=O)(=O)c2ccc(N3CCCCC3)nc2)C[C@H]1C1CCCCC1 [Compound 235, 3-[(R)-2-Cyclohexyl-6-oxo-4-(3,4,5,6-tetrahydro-2H-[1,2′]bipyridinyl-5′-sulfonyl)-piperazin-1-yl]-5-(4-fluoro-phenyl)-thiophene-2-carboxylic acid]",≤ 100 nM
10,"Cc1oncc1S(=O)(=O)N1CC(=O)N(c2cc(C#CC(C)(C)C)sc2C(=O)O)[C@H](C2CCCCC2)C1 [Compound 240, 3-[(R)-2-Cyclohexyl-4-(5-methyl-isoxazole-4-sulfonyl)-6-oxo-piperazin-1-yl]-5-(3,3-dimethyl-but-1-ynyl)-thiophene-2-carboxylic acid]",≤ 100 nM

# Same assay, conditions: Hepatitis C virus; between 100 nM and 5.0 uM
row,Molecule,IC50
1,"CCc1ccc(S(=O)(=O)N2CC(=O)N(c3cc(-c4ccccc4)sc3C(=O)O)C(C3CCCCC3)C2)cc1 (single isomer, unassigned) [Compound 55, 3-[2-Cyclohexyl-4-(4-ethyl-benzenesulfonyl)-6-oxo-piperazin-1-yl]-5-phenyl-thiophene-2-carboxylic acid]",100 to 5000 nM
2,"O=C(O)c1sc(-c2ccccc2)cc1N1C(=O)CC[C@H]1C1CCCCC1 [Compound 6, 3-((S)-2-Cyclohexyl-5-oxo-pyrrolidin-1-yl)-5-phenyl-thiophene-2-carboxylic acid]",100 to 5000 nM
3,O=C(O)c1sc(-c2ccccc2)cc1N1C(=O)CN(S(=O)(=O)c2ccc(-c3ccncc3)nc2)C[C@H]1C1CCCCC1 [Compound 207],100 to 5000 nM
